Here are results for one compound from ChEMBL document CHEMBL3639324, “Meta-substituted phenyl sulfonyl amides of secondary amino acid amides, the production thereof, and use thereof as matriptase inhibitors” (2013).

SMILES strings stand for the structures.

In the assay the target is T1, Suppressor of tumorigenicity 14 protein (Homo sapiens, UniProt Q9Y5Y6).
T1 sequence (Q9Y5Y6 whole entry): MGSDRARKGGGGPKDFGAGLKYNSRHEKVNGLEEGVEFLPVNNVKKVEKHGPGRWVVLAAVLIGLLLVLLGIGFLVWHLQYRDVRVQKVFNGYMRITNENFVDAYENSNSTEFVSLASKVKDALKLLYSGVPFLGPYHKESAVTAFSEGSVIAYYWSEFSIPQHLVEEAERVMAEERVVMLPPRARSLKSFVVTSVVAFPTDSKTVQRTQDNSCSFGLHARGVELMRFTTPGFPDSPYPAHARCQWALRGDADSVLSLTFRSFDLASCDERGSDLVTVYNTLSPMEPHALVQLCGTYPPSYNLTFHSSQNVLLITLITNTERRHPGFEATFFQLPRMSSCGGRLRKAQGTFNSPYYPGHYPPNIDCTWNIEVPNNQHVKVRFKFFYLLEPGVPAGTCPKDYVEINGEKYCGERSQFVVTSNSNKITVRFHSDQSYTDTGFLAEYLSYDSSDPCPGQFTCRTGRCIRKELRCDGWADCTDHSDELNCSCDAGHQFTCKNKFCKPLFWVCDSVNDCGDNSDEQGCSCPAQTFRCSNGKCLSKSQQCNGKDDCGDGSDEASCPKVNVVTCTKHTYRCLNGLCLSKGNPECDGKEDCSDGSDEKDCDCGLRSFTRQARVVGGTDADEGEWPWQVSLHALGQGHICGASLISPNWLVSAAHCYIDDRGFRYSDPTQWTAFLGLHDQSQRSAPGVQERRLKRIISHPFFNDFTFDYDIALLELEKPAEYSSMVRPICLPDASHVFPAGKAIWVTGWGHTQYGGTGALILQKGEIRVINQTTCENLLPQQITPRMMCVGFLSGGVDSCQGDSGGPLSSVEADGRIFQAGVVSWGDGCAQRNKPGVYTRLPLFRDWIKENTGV
As to the kind of experiment: Inhibition Assay: Inhibition assay using matriptase enzyme.

By Ki is commonly meant a measure of affinity in units of concentration, obtained from inhibition or displacement. High values mean weaker binding, low ones tighter binding. As to `CNC(=O)CCCC1CCN(C(=O)[C@H](Cc2cccc(C(=N)N)c2)NS(=O)(=O)c2cccc(N3CCNCC3=O)c2)CC1`, the Ki turned out to be 24 nM.
